Assay results taken from patent US9120756B2, “Substituted phenylureas and phenylamides as vanilloid receptor ligands” (Gruenenthal GmbH, priority 2009, dated 2015).

Experiments:
Assay type in all cases: cell-based
[1] = target: rat-species vanilloid receptor 1 (VR1/TRPV1) (Rattus norvegicus (Rat), UniProt O35433); assay: FLIPR Ca2+ influx assay on rat dorsal root ganglia cells, capsaicin stimulus (method I); settings: for Ki: capsaicin (Cap)
Method: (§1) The agonistic or antagonistic effect of the substances to be tested on the rat-species vanilloid receptor 1 (VR1/TRPV1) can be determined using the following assay. In this assay, the influx of Ca^2+ through the receptor channel is quantified with the aid of a Ca^2+-sensitive dye (type Fluo-4, Molecular Probes Europe BV, Leiden, the Netherlands) in a fluorescent imaging plate reader (FLIPR, Molecular Devices, Sunnyvale, USA).
Complete medium: 50 ml HAMS F12 nutrient mixture (Gibco Invitrogen GmbH, Karlsruhe, Germany) with
10% by volume of FCS (foetal calf serum, Gibco Invitrogen GmbH, Karlsruhe, Germany, heat-inactivated);
2 mM L-glutamine (Sigma, Munich, Germany);
1% by weight of AA solution (antibiotic/antimyotic solution, PAA, Pasching, Austria) and 25 ng/ml NGF medium (2.5 S, Gibco Invitrogen GmbH, Karlsruhe, Germany)
Cell culture plate: Poly-D-lysine-coated, black 96-well plates having a clear base (96-well black/clear plate, BD Biosciences, Heidelberg, Germany) are additionally coated with laminin (Gibco Invitrogen GmbH, Karlsruhe, Germany), the laminin being diluted with PBS (Ca—Mg-free PBS, Gibco Invitrogen GmbH, Karlsruhe, Germany) to a concentration of 100 μg/ml. Aliquots having a laminin concentration of 100 μg/ml are removed and stored at −20° C. The aliquots are diluted with PBS in a ratio of 1:10 to 10 μg/ml of laminin and respectively 50 μL of the solution are pipetted into a recess in the cell culture plate. The cell culture plates are incubated for at least two hours at 37° C., the excess solution is removed by suction and the recesses are each washed twice with PBS. The coated cell culture plates are stored with excess PBS which is not removed until just before the feeding of the cells.
The vertebral column is removed from decapitated rats and placed immediately into cold HBSS buffer (Hank's buffered saline solution, Gibco Invitrogen GmbH, Karlsruhe, Germany), i.e. buffer located in an ice bath, mixed with 1% by volume (percent by volume) of an AA solution (antibiotic/antimyotic solution, PAA, Pasching, Austria). The vertebral column is cut longitudinally and removed together with fasciae from the vertebral canal. Subsequently, the dorsal root ganglia (DRG) are removed and again stored in cold HBSS buffer mixed with 1% by volume of an AA solution. The DRG, from which all blood remnants and spinal nerves have been removed, are transferred in each case to 500 μL of cold type 2 collagenase (PAA, Pasching, Austria) and incubated for 35 minutes at 37° C. After the addition of 2.5% by volume of trypsin (PAA, Pasching, Austria), incubation is continued for 10 minutes at 37° C. After complete incubation, the enzyme solution is carefully pipetted off and 500 μL of complete medium are added to each of the remaining DRG. […] The contents of each Falcon tube are respectively filtered through a 70 μm Falcon filter element and centrifuged for 10 minutes at 1,200 rpm and RT. The resulting pellet is respectively taken up in 250 μL of complete medium and the cell count is determined.
The number of cells in the suspension is set to 3×10^5 per ml and 150 μL of this suspension are in each case introduced into a recess in the cell culture plates coated as described hereinbefore. […] Subsequently, the cells are loaded with 2 μM of Fluo-4 and 0.01% by volume of Pluronic F127 (Molecular Probes Europe BV, Leiden, the Netherlands) in HBSS buffer (Hank's buffered saline solution, Gibco Invitrogen GmbH, Karlsruhe, Germany) for 30 min at 37° C., washed 3 times with HBSS buffer and after further incubation for 15 minutes at RT used for Ca^2+ measurement in a FLIPR assay. The Ca^2+-dependent fluorescence is in this case measured before and after the addition of substances (λex=488 nm, λem=540 nm). Quantification is carried out by measuring the highest fluorescence intensity (FC, fluorescence counts) over time.
The FLIPR protocol consists of 2 substance additions.

hVR1 [2] = target: T1, hVR1 (Homo sapiens (Human), UniProt Q8NER1); assay: FLIPR Ca2+ influx assay on CHO K1 cells transfected with the VR1 gene, capsaicin stimulus (method II); set-up: key to Ki (human being) Cap: result in words (NE / AG): AG=agonist; pAG=partial agonist; NE=no effect; settings: for Ki: capsaicin (Cap), read-out: Ki (human being) [nM] Cap
hVR1 [3] = target: T1, hVR1; assay: FLIPR assay hVR1, after pH stimulus; set-up: key to IC50 (human being) hVR1 pH: result in words (NE / AG): AG=agonist; pAG=partial agonist; NE=no effect; settings: for inhibition at 10 µM: read-out: IC50 (human being) hVR1 pH: inhibition (as a percentage) @ 10 μM, inhibition determined at 10 μM; for IC50: read-out: IC50 (human being) hVR1 [nM], pH
Method: (§2) In this assay, the influx of Ca^2+ through the channel is quantified with the aid of a Ca^2+-sensitive dye (type Fluo-4, Molecular Probes Europe BV, Leiden, the Netherlands) in a fluorescent imaging plate reader (FLIPR, Molecular Devices, Sunnyvale, USA). Chinese hamster ovary cells (CHO K1 cells, European Collection of Cell Cultures (ECACC) United Kingdom) are stably transfected with the VR1 gene. For functional testing, these cells are plated out on poly-D-lysine-coated black 96-well plates having a clear base (BD Biosciences, Heidelberg, Germany) at a density of 25,000 cells/well. […] Subsequently, the plates are washed three times with HBSS buffer and after further incubation for 15 minutes at RT used for Ca^2+ measurement in a FLIPR assay. […] Quantification is carried out by measuring the highest fluorescence intensity (FC, fluorescence counts) over time. The FLIPR protocol consists of 2 substance additions. […] Desensitising agonists and antagonists led to suppression of the Ca^2+ influx. […] Ki values for the test substances were obtained by conversion by means of the Cheng-Prusoff equation (Cheng, Prusoff; Biochem. Pharmacol. 22, 3099-3108, 1973).

hVR1 [4] = target: T1, hVR1; assay: FLIPR assay human VR1, 45° C. stimulus; set-up: key to IC50 (human being) 45° C. column: result in words (AG): AG=agonist; pAG=partial agonist; NE=no effect; settings: for IC50: read-out: IC50 (human being) [nM], 45° C.
Excerpt: as §1, with “the” for “the rat-species”, “(VR1)” for “(VR1/TRPV1)”, “can also” for “can”, “the” for “the receptor”
Chinese hamster ovary cells (CHO K1 cells, European Collection of Cell Cultures (ECACC) United Kingdom) are stably transfected with the VR1 gene. For functional testing, these cells are plated out on poly-D-lysine-coated black 96-well plates having a clear base (BD Biosciences, Heidelberg, Germany) at a density of 25,000 cells/well. The cells are incubated overnight at 37° C. and 5% CO2 in a culture medium (Ham's F12 nutrient mixture, 10% by volume of FCS (foetal calf serum), 18 μg/ml of L-proline). The next day the cells are incubated with Fluo-4 (Fluo-4 2 μM, 0.01% by volume of Pluronic F127, Molecular Probes in HBSS (Hank's buffered saline solution), Gibco Invitrogen GmbH, Karlsruhe, Germany) for 30 minutes at 37° C. Subsequently, the plates are washed three times with HBSS buffer and after further incubation for 15 minutes at RT used for Ca^2+ measurement in a FLIPR assay. The Ca^2+-dependent fluorescence is measured before and after the addition of the substances to be tested (λex wavelength=488 nm, λem=540 nm). Quantification is carried out by measuring the highest fluorescence intensity (FC, fluorescence counts) over time.
The FLIPR protocol consists of 2 substance additions. […]
Desensitising agonists and antagonists led to suppression of the Ca^2+ influx.
Ki values for the test substances were obtained by conversion by means of the Cheng-Prusoff equation (Cheng, Prusoff; Biochem. Pharmacol. 22, 3099-3108, 1973).

hVR1 [5] = target: T1, hVR1; assay: FLIPR assay human VR1, NADA (N-arachidonoyl dopamine) stimulus; set-up: key: AG=agonist; pAG=partial agonist; NE=no effect
Method: as §2

T1 sequence (Q8NER1 whole entry): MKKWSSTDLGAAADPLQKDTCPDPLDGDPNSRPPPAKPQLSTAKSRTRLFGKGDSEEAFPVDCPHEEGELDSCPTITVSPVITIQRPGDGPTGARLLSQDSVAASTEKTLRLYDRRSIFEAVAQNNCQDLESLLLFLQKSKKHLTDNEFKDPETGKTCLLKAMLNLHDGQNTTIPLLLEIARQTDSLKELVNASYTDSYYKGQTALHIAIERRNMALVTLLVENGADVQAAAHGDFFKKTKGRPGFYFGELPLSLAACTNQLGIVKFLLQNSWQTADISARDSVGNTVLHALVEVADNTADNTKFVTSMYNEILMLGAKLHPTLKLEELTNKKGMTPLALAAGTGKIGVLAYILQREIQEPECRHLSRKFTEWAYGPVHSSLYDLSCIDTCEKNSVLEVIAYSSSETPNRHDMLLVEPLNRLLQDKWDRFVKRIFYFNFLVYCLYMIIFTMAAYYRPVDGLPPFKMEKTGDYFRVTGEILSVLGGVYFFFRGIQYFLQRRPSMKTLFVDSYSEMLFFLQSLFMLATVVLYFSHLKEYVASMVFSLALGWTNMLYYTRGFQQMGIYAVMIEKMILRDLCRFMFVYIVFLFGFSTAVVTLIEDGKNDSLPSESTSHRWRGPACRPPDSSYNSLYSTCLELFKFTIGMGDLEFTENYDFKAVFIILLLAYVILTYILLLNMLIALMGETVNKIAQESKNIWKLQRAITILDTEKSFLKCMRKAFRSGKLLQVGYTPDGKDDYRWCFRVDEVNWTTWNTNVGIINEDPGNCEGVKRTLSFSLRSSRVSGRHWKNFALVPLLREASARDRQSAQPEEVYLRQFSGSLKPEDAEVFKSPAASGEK
rat-species vanilloid receptor 1 (VR1/TRPV1), sequence (O35433 whole entry): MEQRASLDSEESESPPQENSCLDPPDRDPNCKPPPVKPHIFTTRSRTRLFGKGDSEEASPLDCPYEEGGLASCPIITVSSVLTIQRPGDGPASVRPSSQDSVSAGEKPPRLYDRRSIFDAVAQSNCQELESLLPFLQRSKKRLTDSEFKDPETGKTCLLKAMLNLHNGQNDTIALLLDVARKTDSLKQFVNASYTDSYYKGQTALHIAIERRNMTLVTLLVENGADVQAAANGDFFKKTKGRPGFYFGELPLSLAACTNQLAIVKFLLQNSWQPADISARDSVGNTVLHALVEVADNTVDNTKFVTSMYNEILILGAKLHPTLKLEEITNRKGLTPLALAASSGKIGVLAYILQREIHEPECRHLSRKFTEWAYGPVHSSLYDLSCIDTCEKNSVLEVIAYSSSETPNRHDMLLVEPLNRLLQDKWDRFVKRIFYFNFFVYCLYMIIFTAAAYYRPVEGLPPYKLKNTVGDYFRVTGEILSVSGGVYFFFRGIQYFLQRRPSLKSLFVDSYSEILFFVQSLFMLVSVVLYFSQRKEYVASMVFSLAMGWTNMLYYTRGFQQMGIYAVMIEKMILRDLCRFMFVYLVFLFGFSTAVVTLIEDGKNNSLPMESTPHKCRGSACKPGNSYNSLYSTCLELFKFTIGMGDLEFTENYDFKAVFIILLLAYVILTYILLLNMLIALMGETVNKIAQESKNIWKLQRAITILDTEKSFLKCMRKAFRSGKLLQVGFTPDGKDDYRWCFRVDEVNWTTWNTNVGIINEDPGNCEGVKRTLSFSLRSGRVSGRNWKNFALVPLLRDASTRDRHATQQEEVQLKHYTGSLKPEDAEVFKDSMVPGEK

SMILES | Ki (hVR1 [2]) [nM] | inhibition at 10 µM (hVR1 [3]) [%] | IC50 (hVR1 [4]) [nM] | Ki [1] [nM] | further results
CCCCCCn1nc(C(C)(C)C)cc1CNC(=O)C(C)c1ccc(NS(C)(=O)=O)c(F)c1 (stereo not shown) [Example 5, N-((3-tert-butyl-1-hexyl-1H-pyrazol-5-yl)methyl)-2-(3-fluoro-4-(methylsulphonamido)phenyl)propanamide] | 50.2 | 36 | 282 |  | inhibition at 1 µM ([1]; read-out: Ki (rat) Cap column: inhibition (as a percentage) @ 1 μM, capsaicin, inhibition determined at 1 μM): 76%
C[C@H](C(=O)NCc1cc(C(F)(F)F)nn1-c1ccc(Cl)cc1)c1ccc(NS(C)(=O)=O)c(F)c1 [Example 23, (S)-N-((1-(4-chlorophenyl)-3-(trifluoromethyl)-1H-pyrazol-5-yl)methyl)-2-(3-fluoro-4-(methylsulphonamido)phenyl)propanamide] | 0.3 |  | 16.1 | 0.4 | IC50 (hVR1 [3]): 47.1 nM
COc1cc(C(C)C(=O)NCc2cc(C(C)(C)C)nn2-c2cccc(Cl)c2)ccc1NS(C)(=O)=O (stereo not shown) [Example 27, N-((3-tert-butyl-1-(3-chlorophenyl)-1H-pyrazol-5-yl)methyl)-2-(3-methoxy-4-(methylsulphonamido)phenyl)propanamide] | 2.2 |  |  | 1.2 | IC50 (human being) hVR1 pH: result in words (NE / AG) (hVR1 [3]): NE
COc1cc(C(C)C(=O)NCc2cc(C(F)(F)F)nn2-c2cccc(Cl)c2)ccc1NS(C)(=O)=O (stereo not shown) [Example 28, N-((1-(3-chlorophenyl)-3-(trifluoromethyl)-1H-pyrazol-5-yl)methyl)-2-(3-methoxy-4-(methylsulphonamido)phenyl)propanamide] | 0.4 |  | 665 |  | IC50 (hVR1 [3]): 16 nM
CC(C(=O)NCc1cc(C(C)(C)C)nn1-c1cccc(Cl)c1)c1ccc(S(=O)(=O)N(C)C)c(F)c1 (stereo not shown) [Example 49, N-((3-tert-butyl-1-(3-chlorophenyl)-1H-pyrazol-5-yl)methyl)-2-(4-(N,N-dimethylsulphamoyl)-3-fluorophenyl)propanamide] |  |  |  |  | Ki (human being) Cap: result in words (NE / AG) (hVR1 [2]; capsaicin): AG; IC50 (human being) hVR1 pH: result in words (NE / AG) (hVR1 [3]): AG; Ki (human being) NADA column: result in words (AG) (hVR1 [5]): AG; IC50 (human being) 45° C. column: result in words (AG) (hVR1 [4]): AG

Continued by falling Ki (hVR1 [2]), values first:

Ki (hVR1 [2]) [nM] | inhibition at 10 µM (hVR1 [3]) [%] | IC50 (hVR1 [4]) [nM] | Ki [1] [nM] | SMILES | further results
31.7 | 42 |  | 42.7 | C[C@@H](C(=O)NCc1cc(C(F)(F)F)nn1-c1ccc(Cl)cc1)c1ccc(NS(C)(=O)=O)c(F)c1 [Example 22, (R)-N-((1-(4-chlorophenyl)-3-(trifluoromethyl)-1H-pyrazol-5-yl)methyl)-2-(3-fluoro-4-(methylsulphonamido)phenyl)propanamide] | 
13.6 |  |  | 25.5 | CC(C(=O)NCc1cc(C(F)(F)F)nn1-c1cccc(Cl)c1)c1ccc(C(F)(F)F)c(F)c1 (stereo not shown) [Example 141, N-((1-(3-chlorophenyl)-3-(trifluoromethyl)-1H-pyrazol-5-yl)methyl)-2-(3-fluoro-4-(trifluoromethyl)phenyl)propanamide] | inhibition at 2.5 µM (hVR1 [4]; inhibition determined at 2.5 μM, read-out: IC50 (human being) 45° C. column: inhibition (as a percentage) @ 2.5 μM): 28%
1.2 | 42 |  |  | CC(C(=O)NCc1cc(C(C)(C)C)nn1-c1cccc(Cl)c1)c1cc(F)c(NS(C)(=O)=O)c(F)c1 (stereo not shown) [Example 29, N-((3-tert-butyl-1-(3-chlorophenyl)-1H-pyrazol-5-yl)methyl)-2-(3,5-difluoro-4-(methylsulphonamido)phenyl)propanamide] | inhibition at 2 µM (hVR1 [4]; read-out: IC50 (human being) 45° C. column: inhibition (as a percentage) @ 2 μM, inhibition determined at 2 μM): 34%
0.5 | 31 | 7 |  | CC(C(=O)NCc1cc(C(C)(C)C)nn1-c1ccc(F)c(Cl)c1)c1ccc(NS(C)(=O)=O)c(F)c1 (stereo not shown) [Example 18, N-((3-tert-butyl-1-(3-chloro-4-fluorophenyl)-1H-pyrazol-5-yl)methyl)-2-(3-fluoro-4-(methylsulphonamido)phenyl)propanamide] | 
0.3 |  |  |  | CC(C(=O)NCc1cc(C(C)(C)C)nn1-c1cccc(Cl)c1)c1ccc(NS(C)(=O)=O)c(F)c1 (stereo not shown) [Example 16, N-((3-tert-butyl-1-(3-chlorophenyl)-1H-pyrazol-5-yl)methyl)-2-(3-fluoro-4-(methylsulphonamido)phenyl)propanamide] | IC50 (human being) hVR1 pH: result in words (NE / AG) (hVR1 [3]): NE; inhibition at 0.625 µM (hVR1 [4]; inhibition determined at 0.625 μM, read-out: IC50 (human being) 45° C. column: inhibition (as a percentage) @ 0.625 μM): 35%
0.3 |  | 27 | 1.2 | CC(C(=O)NCc1cc(C(F)(F)F)nn1-c1ccc(Cl)cc1)c1ccc(NS(C)(=O)=O)c(F)c1 (stereo not shown) [Example 21, N-((1-(4-chlorophenyl)-3-(trifluoromethyl)-1H-pyrazol-5-yl)methyl)-2-(3-fluoro-4-(methylsulphonamido)phenyl)propanamide] | IC50 (hVR1 [3]): 179 nM
